Tested on: K562
Experiment: In vitro antiproliferative activity was measured on human leukemia K562 cells
Assay type: functional, cell-based

SMILES	IC50
CCCCCC(=O)/C=C/C1[C@H](O)C[C@H](O)[C@@H]1C/C=C\CCCC(=O)OC (stereo not given in full)	61 µM
CCCCC[C@H](O)/C=C/C1[C@H](O)C[C@H](O)[C@@H]1C/C=C\CCCC(=O)OC (stereo not given in full)	99 µM
CCCCC[C@H](O)/C=C/[C@]1(O)C[C@@H](O)C=C1C/C=C\CCCC(=O)OC	201 µM
CCCCCC(=O)/C=C/C1[C@H](O)C[C@H](O)[C@@H]1C/C=C\CCCC(=O)O (stereo not given in full)	362 µM
CCCCC[C@H](O)/C=C/[C@H]1[C@H](O)CC(=O)[C@@H]1C/C=C\CCCC(=O)O [DINOPROSTONE]	63 µM
CCCCC[C@H](O)/C=C/[C@@H]1[C@@H](C/C=C\CCCC(=O)O)[C@@H](O)C[C@H]1O [DINOPROST]	> 700 µM

These reach a lower IC50. Values come first.

IC50	SMILES
41 µM	CCCCC[C@H](O)/C=C/C1[C@H](O)CC(=O)[C@@H]1C/C=C\CCCC(=O)OC (stereo not given in full)
28 µM	CCCCCC(=O)/C=C/[C@H]1[C@H](O)CC(=O)[C@@H]1C/C=C\CCCC(=O)OC
20 µM	CCCCCC(=O)/C=C/[C@]1(O)C[C@@H](O)C=C1C/C=C\CCCC(=O)OC
6.6 µM	CCCCCC(=O)/C=C/[C@]1(O)CC(=O)C=C1C/C=C\CCCC(=O)OC
